Values quoted from earlier work as cited in US11737976B2, “Drug delivery means” (priority 2006, dated 2023).
Like-named read-outs stand apart in the source and are kept apart here. Values belong to the compound of their own block, whether it stands above or below them.

How the values were obtained:
[1] = system: arterial smooth muscle cell
[2] = system: endothelial and smooth muscle cells
[3] = system: oxidized cholesterols present in the plasma; conditions: increased concentrations of vitamin E in the blood; some oxidized cholesterols, not all; not reversed once packed into plaques

changes in the arterial smooth muscle cell [1]: causes changes
Compound: C[C@H](CCCC(C)(C)O)[C@H]1CC[C@H]2[C@@H]3CC=C4C[C@@H](O)CC[C@]4(C)[C@H]3CC[C@]12C [25OH, 25-hydroxycholesterol]

Compound: CC(C)CCC[C@@H](C)[C@H]1CC[C@H]2[C@@H]3C(=O)C=C4C[C@@H](O)CC[C@]4(C)[C@H]3CC[C@]12C [7-Keto, 5-Cholesten-3β-ol-7-one]
apoptosis in fibroblasts (fibroblasts): did not cause apoptosis
induction of apoptosis [2]: able to induce apoptosis
cytotoxicity relative to the other oxidized cholesterols studied (cells): most cytotoxic

Compound: vitamin E
lowering the amount of oxidized cholesterols in plasma [3]: effective in lowering the amount of some oxidized cholesterols

Compound: CC(C)CCC[C@@H](C)[C@H]1CC[C@H]2[C@@H]3[C@@H](O)C=C4C[C@@H](O)CC[C@]4(C)[C@H]3CC[C@]12C [7B, 7β-hydroxycholesterol]
apoptosis in fibroblasts (fibroblasts; necrosis occurred instead): did not cause apoptosis
induction of apoptosis ([2]; cells of the vascular wall): able to induce apoptosis
